Several values for one entry are separate records, joined by “and”; a condition that tells them apart may be missing. Identical values can stand only once.
Legend:
[1] = test system: α-Tubulin AcK40; test: α-tubulin acetylation detection by western blot, CBP-HA transfected HEK293T; format: cell-based; conditions: for concentration showing substantial increase of α-Tubulin AcK40 acetylation: 7 h drug incubation; for α-Tubulin AcK40 acetylation level relative to control: HEK293T
Procedure: 0.2 × 10^6 HEK293T (ATCC: CRL-3216) cells were transfected with pcDNA 3.1-HA CBP plasmids (1 μg/well for the 6-well plate) by FuGENE. After 2 days, cells were treated with ACY-738, lipoic acid, and lipoamide for 7 h, then were washed by ice-cold PBS and lysed in Triton lysis buffer (50 mM Tris, pH 8.0, 150 mM NaCl, 1 mM EDTA, 0.1% TritonX-100 and complete EDTA-free protease inhibitors (Roche)) for analysis. To detect protein acetylation, 0.2 μM Trichostatin A and 5 mM nicotinamide were added to PBS for washing, and 10 μM trichostatin A, 10 mM nicotinamide, and 50 mM sodium butyrate were added to Triton lysis buffer.

[2] = test system: HDAC1,2,3,6,8; test: HDAC-Glo assay (panel); format: biochemical, human; conditions: for HDAC inhibition by the oxidized form: absence of TCEP; for EC50: with TCEP, range over HDAC1,2,3,6,8, read-out: EC50 of HDAC inhibition, reduced form
Procedure: (§1) To validate the inhibition of HDACs by LA and LM and elaborate on the structure-activity relationship (SAR) of enantiomers as well as oxidized versus reduced forms of the molecules, we performed enzyme activity assays for recombinant HDAC1,2,3,6,8 as well as FRET-based binding assay for recombinant HDAC10.
(§2) The experiments were performed according to ref. [48]. […] Drug dosing was performed with a D300e Digital Dispenser (Tecan). HDACs (7 ng/mL for HDAC1, 25 ng/mL for HDAC2, 200 ng/mL for HDAC3/Ncor2 complex, 100 ng/mL for HDAC6, 200 ng/mL for HDAC8) and inhibitors were incubated together at room temperature (RT) for 30 min. After the addition of the HDAC-Glo™ I/II reagent, plates were shaken (800 rpm orbital shaker, 30 s), centrifuged (300 g, 1 min), and incubated at RT for 30 min. Luminescence was detected with a CLARIOstar (BMG Labtech) plate reader.

[3] = target: T1, TwinStrep-GST-HDAC10 (Homo sapiens, UniProt Q969S8); test: HDAC10 TR-FRET assay; format: binding; conditions: reducing conditions (0.5 M TCEP)
T1 sequence (Q969S8 1-669): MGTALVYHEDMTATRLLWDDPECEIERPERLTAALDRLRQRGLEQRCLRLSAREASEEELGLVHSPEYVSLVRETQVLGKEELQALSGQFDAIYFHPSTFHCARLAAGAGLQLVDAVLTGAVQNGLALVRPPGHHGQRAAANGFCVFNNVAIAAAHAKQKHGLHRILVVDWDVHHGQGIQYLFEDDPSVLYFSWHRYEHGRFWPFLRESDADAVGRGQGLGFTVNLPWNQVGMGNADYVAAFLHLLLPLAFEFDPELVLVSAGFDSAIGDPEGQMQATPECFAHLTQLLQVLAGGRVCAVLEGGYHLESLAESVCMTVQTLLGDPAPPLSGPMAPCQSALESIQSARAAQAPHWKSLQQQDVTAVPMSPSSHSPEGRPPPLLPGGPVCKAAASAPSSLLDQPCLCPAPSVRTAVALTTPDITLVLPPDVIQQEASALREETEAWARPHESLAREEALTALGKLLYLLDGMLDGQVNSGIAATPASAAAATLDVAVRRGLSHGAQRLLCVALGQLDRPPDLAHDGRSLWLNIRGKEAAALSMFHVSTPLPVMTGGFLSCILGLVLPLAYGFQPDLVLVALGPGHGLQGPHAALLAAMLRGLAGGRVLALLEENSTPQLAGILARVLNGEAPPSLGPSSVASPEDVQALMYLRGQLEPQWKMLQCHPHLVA
Procedure: as §1
Inhibitors with a D300e Digital Dispenser (Tecan). After drug dosing to the premixed assay reagents in buffer, plates were shaken (800 rpm orbital shaker, 30 s), centrifuged (300g, 1 min), and incubated at RT in the dark for 90 min. TR-FRET was measured with a CLARIOstar (BMG Labtech) plate reader, equipped with TR-FRET filters.

[4] = target: T2, HDAC6-catalytic domain 2 (HDAC6CD2) (Homo sapiens, UniProt Q9UBN7); test: NanoBRET intracellular target engagement assay; format: cell-based
T2 construct: HDAC6-catalytic domain 2 (HDAC6CD2); expressed in transfected cells
T2 sequence (Q9UBN7 482-800 limits assumed): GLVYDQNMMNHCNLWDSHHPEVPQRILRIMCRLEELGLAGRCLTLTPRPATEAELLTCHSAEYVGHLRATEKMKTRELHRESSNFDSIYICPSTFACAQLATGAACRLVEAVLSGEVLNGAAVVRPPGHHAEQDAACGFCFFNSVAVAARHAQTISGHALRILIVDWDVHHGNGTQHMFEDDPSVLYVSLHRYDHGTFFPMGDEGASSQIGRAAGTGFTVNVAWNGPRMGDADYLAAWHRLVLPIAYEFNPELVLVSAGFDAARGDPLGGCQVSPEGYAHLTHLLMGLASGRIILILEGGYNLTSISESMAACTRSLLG
Procedure: For the production of transfected HeLa mono-clones stably expressing HDAC-nanoBRET fusion proteins of HDAC10 and HDAC6-catalytic domain 2 (HDAC6CD2), plasmids expressing a fusion of HDAC10 with nanoluciferase were obtained from Promega (N2170). HeLa cells (0.75 × 10^6) were seeded in a 6 cm dish and were transfected with a mix of 10 μg plasmid and 3 μL Fugene in 200 μL OptiMEM after 24 h. The intracellular target engagement assay on HDAC10 and HDAC6CD2 was performed using the NanoBRET™ Target Engagement Intracellular HDAC Assay (Promega N2081 and N2090) as described by the kit manufacturer in a 96-well plate (Corning 3600) format with 2 × 10^4 cells per well and a tracer concentration of 0.3 μM. Inhibitors were dosed with a D300e Digital Dispenser (Tecan). DMSO concentrations were normalized to 0.5% for all wells. After dosing, assay plates were shaken at 800 rpm and incubated at 37 °C for 2 h followed by measurement of 450 nm and 650 nm luminescence (80 nm bandwidth) at room temperature with a CLARIOstar (BMG Labtech) plate reader 2 min after NanoLuc substrate addition.

[5] = target: HDAC2 (Homo sapiens, UniProt Q92769); test: HDAC-Glo assay; format: biochemical; parameters: purchased BPS Bioscience 50002; conditions: for EC50: read-out: log EC50 from dose-dependent HDAC inhibition curves (converted); for HDAC2 relative activity: sheet S2b
Sequence of HDAC2 (Q92769 whole entry): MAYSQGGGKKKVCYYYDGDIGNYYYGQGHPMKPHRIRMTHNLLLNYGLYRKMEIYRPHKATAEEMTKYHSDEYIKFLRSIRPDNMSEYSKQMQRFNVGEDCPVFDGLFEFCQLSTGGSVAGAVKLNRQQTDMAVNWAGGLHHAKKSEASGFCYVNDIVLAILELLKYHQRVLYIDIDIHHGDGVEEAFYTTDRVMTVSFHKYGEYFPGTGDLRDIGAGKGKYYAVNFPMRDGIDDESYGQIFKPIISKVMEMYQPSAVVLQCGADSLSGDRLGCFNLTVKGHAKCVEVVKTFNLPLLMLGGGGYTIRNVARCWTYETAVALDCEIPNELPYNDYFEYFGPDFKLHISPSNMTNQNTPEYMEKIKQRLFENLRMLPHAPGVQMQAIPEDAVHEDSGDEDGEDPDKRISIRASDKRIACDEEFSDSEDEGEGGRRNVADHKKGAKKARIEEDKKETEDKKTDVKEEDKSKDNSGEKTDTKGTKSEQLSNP
Procedure: as §1, §2

| Compound | concentration showing substantial increase of α-Tubulin AcK40 acetylation [1] [µM] | α-Tubulin AcK40 acetylation level relative to control ([1]; 1 mM) [fold] | α-Tubulin AcK40 acetylation level relative to control ([1]; .5 (mM)) [fold] | HDAC inhibition by the oxidized form [2] | EC50 [2] [µM] | fold lower affinity to HDAC10 compared to Vorinostat [3] [fold] | EC50 [5] [µM] | HDAC2 relative activity ([5]; log conc -3.30103) | HDAC2 relative activity ([5]; log conc -3.82945) | HDAC2 relative activity ([5]; log conc -4.35788) | HDAC2 relative activity ([5]; log conc -4.88629) | HDAC2 relative activity ([5]; log conc -5.41477) | HDAC2 relative activity ([5]; log conc -5.94309) | HDAC2 relative activity ([5]; log conc -6.47756) | HDAC2 relative activity ([5]; log conc -6.87615) | further results |
| --- | --- | --- | --- | --- | --- | --- | --- | --- | --- | --- | --- | --- | --- | --- | --- | --- |
| NC(=O)CCCCC1CCSS1 (racemic) [(R/S)-LM, (R/S)-lipoamide] | 50 | 4.0 | 2.5 | No activity at all | 1 to 44 | 5 | 6.64 | 71.964 and 72.3177 and 72.1483 | 80.6393 and 80.2369 and 79.5941 | 93.3465 and 95.4258 and 92.7624 | 96.436 and 96.5227 and 94.9323 | 101.607 and 103.068 and 101.387 | 100.457 and 99.1256 and 100.639 | 98.6184 and 99.6756 and 101.604 | 101.142 and 100.648 and 102.314 | α-Tubulin AcK40 acetylation level relative to control ([1]; 1 mM, listed as LM): 4 fold; intracellular binding to HDAC6 ([4]; HeLa cells): dose-dependent intracellular binding; IC50 ([4]; HeLa cells, 2 h, read-out: concentration of half maximal HDAC6 inhibition): 35 µM |
| O=C(O)CCCCC1CCSS1 (racemic) [(R/S)-LA, (R/S)-lipoic acid] | 50 | 3.4 | 2 | diminished activity | 1 to 44 | ~200 | 27.9 | 1.632 and 1.608 and 1.6104 | 4.377 and 4.239 and 4.397 | 14.1348 and 14.1034 and 14.0027 | 32.6794 and 32.1097 and 32.0348 | 62.7872 and 63.5079 and 63.5078 | 83.5078 and 83.413 and 83.6174 | 91.2192 and 90.5813 and 91.6447 | 99.2152 and 97.4208 and 97.0893 | potency of intracellular target engagement and HDAC substrate hyperacetylation ([4]; peer review response): 50 to 300 µM; HDAC enzymatic activity (normalized luminescence) ([5]; 0.5 M TCEP, log10 M -3.30103, 3 technical replicates): 4.517 and 4.579 and 4.669; HDAC enzymatic activity (normalized luminescence) ([5]; 0.5 M TCEP, log10 M -3.82945, 3 technical replicates): 14.6838 and 15.1597 and 14.9231; HDAC enzymatic activity (normalized luminescence) ([5]; 0.5 M TCEP, log10 M -4.35788, 3 technical replicates): 37.5127 and 37.9281 and 38.3803; HDAC enzymatic activity (normalized luminescence) ([5]; 0.5 M TCEP, log10 M -4.88629, 3 technical replicates): 65.6665 and 63.7639 and 65.7588; HDAC enzymatic activity (normalized luminescence) ([5]; 0.5 M TCEP, log10 M -5.41477, 3 technical replicates): 83.5292 and 85.2785 and 86.439; HDAC enzymatic activity (normalized luminescence) ([5]; 0.5 M TCEP, log10 M -5.94309, 3 technical replicates): 90.5846 and 91.5425 and 93.8157; HDAC enzymatic activity (normalized luminescence) ([5]; 0.5 M TCEP, log10 M -6.47756, 3 technical replicates): 95.0155 and 95.0012 and 98.6939; HDAC enzymatic activity (normalized luminescence) ([5]; 0.5 M TCEP, log10 M -6.87615, 3 technical replicates): 97.7664 and 98.3233 and 101.153; HDAC enzymatic activity (normalized luminescence) ([5]; no TCEP, log10 M -3.30103, 3 technical replicates): 44.2753 and 42.6833 and 42.8281; HDAC enzymatic activity (normalized luminescence) ([5]; no TCEP, log10 M -3.82945, 3 technical replicates): 74.0269 and 74.0487 and 74.0611; HDAC enzymatic activity (normalized luminescence) ([5]; no TCEP, log10 M -4.35788, 3 technical replicates): 91.4647 and 91.3223 and 92.1121; HDAC enzymatic activity (normalized luminescence) ([5]; no TCEP, log10 M -4.88629, 3 technical replicates): 96.4611 and 96.3058 and 97.9917; HDAC enzymatic activity (normalized luminescence) ([5]; no TCEP, log10 M -5.41477, 3 technical replicates): 98.5234 and 99.2037 and 100.016; HDAC enzymatic activity (normalized luminescence) ([5]; no TCEP, log10 M -5.94309, 3 technical replicates): 96.9658 and 96.4307 and 98.1115; HDAC enzymatic activity (normalized luminescence) ([5]; no TCEP, log10 M -6.47756, 3 technical replicates): 98.5723 and 98.9021 and 101.472; HDAC enzymatic activity (normalized luminescence) ([5]; no TCEP, log10 M -6.87615, 3 technical replicates): 102.033 and 100.085 and 101.747 |

From article PMC10272112 (Nature Communications, 2023)
